# Experimental data as given in paper PMC3503449 (Breast cancer research and treatment, 2008).
# Biological target: estrogen receptor α (ERα) (Homo sapiens, UniProt P03372)
# Assay: ERE-luciferase reporter, antagonism of EXE-induced ER activity
# Assay type: cell-based
# Chain of estrogen receptor α (ERα) (P03372 whole entry): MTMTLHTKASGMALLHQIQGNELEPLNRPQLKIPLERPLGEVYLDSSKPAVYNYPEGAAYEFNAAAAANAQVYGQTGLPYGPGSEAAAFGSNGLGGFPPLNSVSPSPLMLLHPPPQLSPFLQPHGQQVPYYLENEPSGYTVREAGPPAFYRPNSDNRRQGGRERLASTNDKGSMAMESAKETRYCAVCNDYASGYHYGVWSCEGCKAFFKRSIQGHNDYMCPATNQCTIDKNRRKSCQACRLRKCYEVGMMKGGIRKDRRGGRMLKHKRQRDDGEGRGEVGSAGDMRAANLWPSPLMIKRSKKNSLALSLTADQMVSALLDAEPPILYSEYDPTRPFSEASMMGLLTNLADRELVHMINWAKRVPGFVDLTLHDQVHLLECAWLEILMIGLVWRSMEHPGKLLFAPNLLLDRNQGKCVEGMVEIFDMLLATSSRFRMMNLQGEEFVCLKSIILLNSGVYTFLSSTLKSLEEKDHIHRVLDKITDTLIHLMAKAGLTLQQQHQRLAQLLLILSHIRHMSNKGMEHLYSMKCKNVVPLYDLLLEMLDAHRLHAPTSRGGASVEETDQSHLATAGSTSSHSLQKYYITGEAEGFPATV
compound,measurement,value
"C[C@]12CC[C@@H]3c4ccc(O)cc4C[C@@H](CCCCCCCCC[S+]([O-])CCCC(F)(F)C(F)(F)F)[C@H]3[C@@H]1CC[C@@H]2O (stereo partly shown) [ICI, ICI 182780]","ERE-luciferase reporter, antagonism of EXE-induced ER activity",ER activity was inhibited using the pure ER antagonist ICI
